Measured values taken from patent publication US9388147B2 (Receptos, Inc., priority 2009, dated 2016).

biological target: S1P1/EDG1 (Homo sapiens, UniProt P21453); experiment: S1P1 CRE-bla CHOK1 reporter assay, inhibition of Forskolin induced cAMP; type: cell-based; settings: agonist activity range, S1P1 CRE-bla CHOK1, 2 μM Forskolin; read-out: S1P1 ACTIVITY
Description: Generation of S1P1-Mediated Inhibition of cAMP Reporter Assay
A mammalian expression plasmid containing S1P1/EDG1 cloned into pcDNA3.1 was purchased from Missouri S&T cDNA Resource Centre. […] S1P1/pcDNA3.1 was transfected into the CRE-bla CHO K1 (Invitrogen) cell line, and stable single cell clones were selected using standard techniques.
S1P1 CRE-Bla CHOK1 Reporter Assay—Characterization of S1P1 Agonists
Cells were seeded into 384-well black wall/clear bottom plates at 10^4 cells/well/19.5 μl assay media (DMEM-phenol free, 0.5% charcoal/dextran stripped serum, 2 mM glutamine, 0.1 mM NEAA, 1 mM Na-Pyruvate, 25 mM Hepes) and incubated for 18 hrs at 37° C. in 5% CO2. Dose response curves (10-point) were generated in 10 mM Hepes, 0.1% Pluronic F127, in the presence of Forskolin. Cells were treated with 0.5 μl compound in the presence of 2 μM Forskolin for 4 hrs at 37° C. The FRET-based β-lactamase fluorescent substrate (LiveBLAzer™-FRET B/G Loading Kit CC4-AM; Invitrogen) was prepared according to manufacturer's directions, and incubated with cells for 2 hrs at room temperature. […] Data was analyzed by non-linear regression to determine the EC50 for inhibition of Forskolin induced cAMP.

S1P1/EDG1, sequence (P21453 whole entry): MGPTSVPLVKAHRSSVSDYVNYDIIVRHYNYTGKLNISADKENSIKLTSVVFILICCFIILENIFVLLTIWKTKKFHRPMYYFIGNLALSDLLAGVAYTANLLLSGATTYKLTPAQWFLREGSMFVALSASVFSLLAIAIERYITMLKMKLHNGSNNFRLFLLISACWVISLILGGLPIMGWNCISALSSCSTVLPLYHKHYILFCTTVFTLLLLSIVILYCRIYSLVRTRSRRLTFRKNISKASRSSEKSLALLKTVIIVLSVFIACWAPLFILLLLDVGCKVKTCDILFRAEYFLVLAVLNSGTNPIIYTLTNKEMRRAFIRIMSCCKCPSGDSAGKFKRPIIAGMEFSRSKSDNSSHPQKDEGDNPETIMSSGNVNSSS

Q: How did the EC50 turn out when `N#Cc1cc(-c2nc(-c3cccc4c3CCC4NCCO)no2)ccc1OC[C@@H](O)CO` (mixture of isomers) [Compound 104] was run?
A: > 5 nM

Q: `CC(C)Oc1ccc(-c2nc(-c3cccc4c3CC[C@@H]4NS(N)(=O)=O)no2)cc1C#N` [Compound 249] was tested. Which EC50 did it give?
A: < 0.05 nM

Q: With `CC(C)Oc1ccc(-c2nc(-c3cccc4c3CC[C@H]4N)no2)cc1Cl` [Compound 95, (R)-4-(5-(3-chloro-4-isopropoxyphenyl)-1,2,4-oxadiazol-3-yl)-2,3-dihydro-1H-inden-1-amine] as the compound, how does the EC50 read?
A: > 5 nM

Q: With `CC(C)Oc1ccc(-c2nc(-c3cccc4c3CC[C@H]4NC(=O)N3CCC(CC(=O)O)CC3)no2)cc1C#N` [Compound 228] as the compound, how does the EC50 read?
A: 0.5 to 5 nM

Q: With `CC(C)Oc1ccc(-c2nc(-c3cccc4c3CCC4NC3CCNCC3)no2)cc1C#N` (racemic) [Compound 19, 2-isopropoxy-5-(3-(1-(piperidin-4-ylamino)-2,3-dihydro-1H-inden-4-yl)-1,2,4-oxadiazol-5-yl)benzonitrile] as the compound, how does the EC50 read?
A: > 5 nM

Q: For `CN[C@@H]1CCc2c(-c3noc(-c4ccc(OC(C)C)c(C#N)c4)n3)cccc21` [Compound 143], which EC50 is on record?
A: 0.05 to 0.5 nM

Q: With `CC(C)Oc1ccc(-c2nc(-c3cccc4c3CC[C@@H]4NS(=O)(=O)CCN3CCOCC3)no2)cc1C#N` [Compound 177] as the compound, how does the EC50 read?
A: 0.5 to 5 nM

Q: How did the EC50 turn out when `COC(=O)N[C@H]1CCc2c(-c3noc(-c4ccc(OC(C)C)c(C#N)c4)n3)cccc21` [Compound 150] was run?
A: 0.05 to 0.5 nM

Q: How did the EC50 turn out when `CC(C)Oc1ccc(-c2nc(-c3cccc4c3CC[C@H]4NS(=O)(=O)CCN3CCCCC3)no2)cc1C#N` [Compound 175] was run?
A: 0.5 to 5 nM

Q: How did the EC50 turn out when `CC(C)Oc1ccc(-c2nc(-c3cccc4c3CC[C@H]4NS(=O)(=O)CCN3CC[C@H](O)C3)no2)cc1C#N` [Compound 172] was run?
A: 0.5 to 5 nM

Q: How did the EC50 turn out when `CC(C)Oc1ccc(-c2nc(-c3cccc4c3CC[C@H]4N(CCO)S(=O)(=O)c3ccccc3)no2)cc1C#N` [Compound 117] was run?
A: > 5 nM

Q: How did the EC50 turn out when `CC(C)Oc1ccc(-c2nc(-c3cccc4c3CC[C@@H]4NC(=O)N3CCC(C(=O)O)CC3)no2)cc1C#N` [Compound 239] was run?
A: 0.05 to 0.5 nM

Q: How did the EC50 turn out when `CC(C)Oc1ccc(-c2nc(-c3cccc4c3CC[C@@H]4O)no2)cc1C#N` [Compound 6, (S)-5-(3-(1-hydroxy-2,3-dihydro-1H-inden-4-yl)-1,2,4-oxadiazol-5-yl)-2-isopropoxy-benzonitrile] was run?
A: < 0.05 nM

Q: How did the EC50 turn out when `CNC(=O)C1CN([C@H]2CCc3c(-c4noc(-c5ccc(OC(C)C)c(C#N)c5)n4)cccc32)C1` [Compound 206] was run?
A: 0.05 to 0.5 nM

Q: With `CC(C)Oc1ccc(-c2nc(-c3cccc4c3CC[C@@H]4NCC(F)F)no2)cc1C#N` [Compound 141] as the compound, how does the EC50 read?
A: 0.05 to 0.5 nM

Q: Which EC50 does the source give for `CC(C)Oc1ccc(-c2nc(-c3cccc4c3CC[C@H]4NCC(=O)N3CC[C@H](O)C3)no2)cc1C#N` [Compound 134] here?
A: 0.05 to 0.5 nM

Q: `CC(C)Oc1ccc(-c2nc(-c3cccc4c3CC[C@H]4NS(=O)(=O)CC(=O)N3CCOCC3)no2)cc1C#N` [Compound 192] was tested. Which EC50 did it give?
A: < 0.05 nM

Q: With `CC(C)Oc1ccc(-c2nc(-c3cccc4c3CC[C@@H]4NCCCCC(=O)O)no2)cc1C#N` [Compound 148] as the compound, how does the EC50 read?
A: < 0.05 nM

Q: For `N#Cc1cccc(-c2nc(-c3cccc4c3CC[C@H]4N)no2)c1` [Compound 92, (R)-3-(3-(1-amino-2,3-dihydro-1H-inden-4-yl)-1,2,4-oxadiazol-5-yl)benzonitrile], which EC50 is on record?
A: > 5 nM

Q: Which EC50 does the source give for `CC(C)C(=O)Oc1ccc(-c2nc(-c3cccc4c3CCC4NCCO)no2)cc1C#N` (racemic) [Compound 108] here?
A: > 5 nM

Q: Which EC50 does the source give for `CCCN[C@H]1CCc2c(-c3noc(-c4ccc(OC(C)C)c(C#N)c4)n3)cccc21` [Compound 144] here?
A: 0.05 to 0.5 nM

Q: For `CC(C)Oc1ccc(-c2nc(-c3cccc4c3CCC4NCCN3CCCCC3)no2)cc1C#N` (racemic) [Compound 20], which EC50 is on record?
A: > 5 nM

Q: `COC(=O)C1CCN(C(=O)N[C@H]2CCc3c(-c4noc(-c5ccc(OC(C)C)c(C#N)c5)n4)cccc32)CC1` [Compound 237] was tested. Which EC50 did it give?
A: 0.05 to 0.5 nM

Q: How did the EC50 turn out when `CC(C)Oc1ccc(-c2nc(-c3cccc4c3CC[C@H]4NS(=O)(=O)CCCO)no2)cc1C#N` [Compound 188] was run?
A: < 0.05 nM

Q: With `CC(C)Oc1ccc(-c2nc(-c3cccc4c3CC[C@@H]4NC(=O)N3CC[C@@H](O)C3)no2)cc1C#N` [Compound 232] as the compound, how does the EC50 read?
A: 0.05 to 0.5 nM

Q: Which EC50 does the source give for `CC(C)Oc1ccc(-c2nc(-c3cccc4c3CC[C@H]4NCC(N)=O)no2)cc1C#N` [Compound 51] here?
A: < 0.05 nM

Q: With `CC(C)Oc1ccc(-c2nc(-c3cccc4c3CC[C@H]4NC(=O)N3CCC(N(C)C)CC3)no2)cc1C#N` [Compound 246] as the compound, how does the EC50 read?
A: > 5 nM

Q: With `CC(C)Oc1ccc(-c2nc(-c3cccc4c3CC[C@H]4NC(=O)N3CC[C@H](N)C3)no2)cc1C#N` [Compound 222] as the compound, how does the EC50 read?
A: 0.5 to 5 nM

Q: With `CC(C)Oc1ccc(-c2nc(-c3cccc4c3CC[C@@H]4NC(=O)N3CC[C@H](O)C3)no2)cc1C#N` [Compound 233] as the compound, how does the EC50 read?
A: 0.05 to 0.5 nM

Q: Which EC50 does the source give for `CCOc1ccc(-c2nc(-c3cccc4c3CC[C@@H]4O)no2)cc1C(F)(F)F` [Compound 10] here?
A: 0.05 to 0.5 nM

Q: Which EC50 does the source give for `CC(C)Oc1cc(C#N)cc(-c2nc(-c3cccc4c3CCC4N)no2)c1` (stereo in doubt) [Compound 97, (R)-3-(3-(1-amino-2,3-dihydro-1H-inden-4-yl)-1,2,4-oxadiazol-5-yl)-5-isopropoxy benzo-nitrile] here?
A: > 5 nM

Q: `COC(=O)CCNC1CCc2c(-c3noc(-c4ccc(OC(C)C)c(C#N)c4)n3)cccc21` (racemic) [Compound 35] was tested. Which EC50 did it give?
A: 0.05 to 0.5 nM

Q: For `CC(C)Oc1ccc(-c2nc(-c3cccc4c3CC[C@@H]4NC(=O)N3CCC[C@@H](O)C3)no2)cc1C#N` [Compound 220], which EC50 is on record?
A: 0.05 to 0.5 nM

Q: For `CC(C)Oc1ccc(-c2nc(-c3cccc4c3CC[C@H]4NCC(=O)N3CCNCC3)no2)cc1C#N` [Compound 131], which EC50 is on record?
A: > 5 nM

Q: How did the EC50 turn out when `CCOc1ccc(-c2nc(-c3cccc4c3CC[C@@H]4O)no2)cc1C#N` [Compound 4] was run?
A: 0.05 to 0.5 nM

Q: Which EC50 does the source give for `CC(C)Oc1ccc(-c2nc(-c3cccc4c3CC[C@H]4NS(=O)(=O)CCN3CC[C@@H](O)C3)no2)cc1C#N` [Compound 171] here?
A: 0.05 to 0.5 nM

Q: `CC(C)Oc1ccc(-c2nc(-c3cccc4c3CC[C@@H]4NS(=O)(=O)C3CC3)no2)cc1C#N` [Compound 167] was tested. Which EC50 did it give?
A: 0.05 to 0.5 nM

Q: With `CC(C)Oc1ccc(-c2nc(-c3cccc4c3CCC4NCCS(C)(=O)=O)no2)cc1C#N` (racemic) [Compound 44] as the compound, how does the EC50 read?
A: 0.05 to 0.5 nM

Q: `CC(C)Oc1ccc(-c2nc(-c3cccc4c3CC[C@H]4NC(C)C(=O)N(C)C)no2)cc1C#N` (mixture of isomers) [Compound 58] was tested. Which EC50 did it give?
A: 0.5 to 5 nM

Q: For `CC(C)Oc1ccc(-c2nc(-c3cccc4c3CCC4N3CCOCC3)no2)cc1C#N` (racemic) [Compound 46], which EC50 is on record?
A: 0.5 to 5 nM

Q: Which EC50 does the source give for `CC(C)Oc1ccc(-c2nc(-c3cccc4c3CC[C@H]4NS(N)(=O)=O)no2)cc1C#N` [Compound 248, (R)-N-(4-(5-(3 cyano-4-isopropoxyphenyl)-1,2,4-oxadiazol-3-yl)-2,3-dihydro-1H-inden-1-yl)sulfamide] here?
A: < 0.05 nM

Q: `COC(=O)C1CN(C2CCc3c(-c4noc(-c5ccc(OC(C)C)c(C#N)c5)n4)cccc32)C1` (racemic) [Compound 36] was tested. Which EC50 did it give?
A: 0.05 to 0.5 nM

Q: With `CC(C)Oc1ccc(-c2nc(-c3cccc4c3CCC4N3CCC(O)CC3)no2)cc1C#N` (racemic) [Compound 16, 5-(3-(1-(4-hydroxypiperidin-1-yl)-2,3-dihydro-1H-inden-4-yl)-1,2,4-oxadiazol-5-yl)-2-isopropoxybenzonitrile] as the compound, how does the EC50 read?
A: 0.05 to 0.5 nM

Q: Which EC50 does the source give for `CC(C)Oc1ccc(-c2nc(-c3cccc4c3CC[C@H]4NC(=O)OCCO)no2)cc1C#N` [Compound 227] here?
A: 0.05 to 0.5 nM

Q: How did the EC50 turn out when `CC(C)COc1ccc(-c2nc(-c3cccc4c3CCC4NCCO)no2)cc1C#N` (racemic) [Compound 103, 5-(3-(1-((2-hydroxyethyl)amino)-2,3-dihydro-1H-inden-4-yl)-1,2,4-oxadiazol-5-yl)-2-isobutoxybenzonitrile] was run?
A: 0.5 to 5 nM

Q: With `CC(C)Oc1ccc(-c2nc(-c3cccc4c3CC[C@H]4NCC(C)(C)O)no2)cc1C#N` [Compound 57] as the compound, how does the EC50 read?
A: 0.5 to 5 nM

Q: Which EC50 does the source give for `CC(C)Oc1ccc(-c2nc(-c3cccc4c3CC[C@@H]4N(C)C)no2)cc1C#N` [Compound 210] here?
A: 0.5 to 5 nM

Q: `N#Cc1cc(OC(F)(F)F)cc(-c2nc(-c3cccc4c3CC[C@H]4N)no2)c1` [Compound 93, (R)-3-(3-(1-amino-2,3-dihydro-1H-inden-4-yl)-1,2,4-oxadiazol-5-yl)-5-(trifluoromethoxy)benzonitrile] was tested. Which EC50 did it give?
A: > 5 nM

Q: With `CC(C)Oc1ccc(-c2nc(-c3cccc4c3CC[C@@H]4NC(=O)N3CCC(CO)CC3)no2)cc1C#N` [Compound 218] as the compound, how does the EC50 read?
A: 0.05 to 0.5 nM

Q: For `CC(=O)N[C@H]1CCc2c(-c3noc(-c4ccc(OC(C)C)c(C#N)c4)n3)cccc21` [Compound 139, (S)-N-(4-(5-(3 cyano-4-isopropoxyphenyl)-1,2,4-oxadiazol-3-yl)-2,3-dihydro-1H-inden-1-yl)acetamide], which EC50 is on record?
A: 0.05 to 0.5 nM

Q: With `CC(C)Oc1ccc(-c2nc(-c3cccc4c3CC[C@@H]4NS(=O)(=O)CC(N)=O)no2)cc1C#N` [Compound 196] as the compound, how does the EC50 read?
A: < 0.05 nM

Q: For `CC(C)Oc1ccc(-c2nc(-c3cccc4c3CC[C@@H]4NS(=O)(=O)CCN3CCC3)no2)cc1C#N` [Compound 169], which EC50 is on record?
A: 0.5 to 5 nM

Q: With `CC(C)Oc1ccc(-c2nc(-c3cccc4c3CCC4N3CC[C@@H](O)C3)no2)cc1C#N` (mixture of isomers) [Compound 33] as the compound, how does the EC50 read?
A: 0.5 to 5 nM

Q: With `CC(C)Oc1ccc(-c2nc(-c3cccc4c3CC[C@@H]4NCc3ccccc3)no2)cc1C#N` [Compound 157] as the compound, how does the EC50 read?
A: 0.5 to 5 nM

Q: Which EC50 does the source give for `CC(C)Oc1ccc(-c2nc(-c3cccc4c3CCC4N3CCCCC3)no2)cc1C#N` (racemic) [Compound 48] here?
A: > 5 nM
